# Laboratory results taken from patent publication US20260272936A1, “TREATMENT OF CANCER WITH A PARG INHIBITOR” (858 Therapeutics, Inc., priority 2023, published 2026).
# What was measured:
# [1] = system: RMUG-S ovarian cancer xenograft; assay: RMUG-S ovarian cancer CDX model; type: in vivo, NOD SCID or NOG mice
# Experimental: The CDX model was established by subcutaneous inoculation of 1×10^7 viable RMUG-S cells into the right flank of NOD SCID or NOG mice. […] Compound 1 was administered to mice orally either once daily (QD) or twice daily (BID) for 32-50 days. Compound 1 was administered to mice continuously throughout the treatment period (7/7 days) or intermittently from Monday-Friday (5/7 days), or Monday-Thursday (4/7 days) during the treatment period.
# For all studies, tumor volumes and body weights were measured twice weekly. […] Statistical analysis of end-of-study mean tumor volumes for the T025OV model was performed using an unpaired t-test with Welch's correction.
# [2] = system: T026OV ovarian cancer patient-derived organoid; assay: 7-day organoid colony formation, ATP content (Cell Titer Glo 3D); type: cell-based, human; settings: T026OV PDO, 7 days
# Description: The FU-97 (Cat #JCRB1074) human gastric cancer cell line and the Kuramochi (Cat #JCRB0098) and RMUG-S(Cat #IFO50320) human ovarian cancer cell lines were obtained from the National Institutes of Biomedical Innovation, Health and Nutrition's Japanese Collection of Research Bioresources (JCRB) (Ibaraki City, Osaka, Japan). The HCC1419 (Cat #CRL-2326) and HCC1428 (Cat #CRL-2327) human breast cancer cell lines and the NCI-H1650 (Cat #CRL-5883) and NCI-H1792 (Cat #CRL-5895) non-small cell lung cancer cell lines were obtained from ATCC (Manassas, Virginia, USA). The human gastric cancer cell lines GCIY (Cat #RCB0555) and SNU601 (Cat #CSC-C9686L) were obtained from the Riken Bioresource Research Center (Tsukuba, Ibaraki, Japan) and Creative Bioarray (Shirley, NY, USA), respectively. The T025OV ovarian cancer organoid model was developed from a patient-derived xenograft (PDX) model, which was developed from primary serous ovarian carcinoma cells obtained from Discovery Life Sciences (Huntsville, AL, USA, SN #350627149). T026OV organoids were developed from PDX cells obtained from The Jackson Laboratory (Bar Harbor, ME, USA, Cat #TM00335).
# T025OV and T026OV PDOs were cultured in PDO complete media on a thin layer of growth-factor reduced Matrigel (Corning, Glendale, AZ, USA Cat #356231). […]
# Compound 1 IC50 values for inhibition of organoid colony formation were determined by measuring ATP levels after 7 days of treatment utilizing Cell Titer Glo 3D reagent (Promega, Madison, WI, USA Cat #G9683). […] Luminescence values (RLU) were read-out using a Clariostar plate reader (BMG Labtech, Cary, NC). […]
compound,measurement,setting,value
"[2H]C([2H])(c1cnn(C)c1)N1C(=O)c2cc(S(=O)(=O)NC3(C)CC3)ccc2N2C1=NC[C@H]2C [Compound 1, (R)-1-methyl-4-((1-methyl-1H-pyrazol-4-yl)methyl-d2)-N-(1-methylcyclopropyl)-5-oxo-1,2,4,5-tetrahydroimidazo[1,2-a]quinazoline-7-sulfonamide]",mean body weight gain over the treatment period,"[1]; first study, highest dose group",5%
same,tolerability (body weight),[1]; second study,generally well tolerated
same,IC50,"[2]; Homo sapiens, 168 h, geometric mean, read-out: IC50 inhibition of ATP content",0.213 µM
same,IC90,"[2]; Homo sapiens, 168 h, geometric mean, read-out: IC90 inhibition of ATP content",0.567 µM
same,maximum reduction in cellular ATP content,[2],approximately 50%
